Assay results: PubChem BioAssay AID206 (DTP/NCI, 2004)
Several values for one entry are separate records, joined by “and”; a condition that tells them apart may be missing. Equal values may be shown once. Results filed as inconclusive are left out.

System: nude mice, HT29 intrarenal xenograft, tumor weight T/C
Assay: NCI In Vivo Anticancer Drug Screen. Data for tumor model HT29;CX-1 Human Adenocarcinoma (MER+) (intrarenal inoculation) in NU/NU Swiss (nude) mice
Conditions: endpoint: mean tumor weight change, higher = larger tumour
Method in brief: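 Readout: treated/vehicle-control ratio of the measured endpoint (tumor size or survival) in transplanted-tumor mice.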

[1] = dose: 75.0 mg/kg/injection, schedule: Q04DX004 (sc), vehicle: saline with Tween-80
[2] = dose: 150.0 mg/kg/injection, schedule: Q04DX004 (sc), vehicle: saline with Tween-80
[3] = dose: 300.0 mg/kg/injection, schedule: Q04DX004 (sc), vehicle: saline with Tween-80
[4] = dose: 600.0 mg/kg/injection, schedule: Q04DX004 (sc), vehicle: saline with Tween-80
[5] = dose: 1200.0 mg/kg/injection, schedule: Q04DX004 (sc), vehicle: saline with Tween-80
[6] = dose: 50.0 mg/kg/injection, schedule: Q04DX004 (sc), vehicle: saline with Tween-80
[7] = dose: 200.0 mg/kg/injection, schedule: Q04DX004 (sc), vehicle: saline with Tween-80
[8] = dose: 200.0 mg/kg/injection, schedule: Q04DX004 (sc), vehicle: suspension in saline
[9] = dose: 400.0 mg/kg/injection, schedule: Q04DX004 (sc), vehicle: suspension in saline
[10] = dose: 800.0 mg/kg/injection, schedule: Q04DX004 (sc), vehicle: suspension in saline
[11] = dose: 100.0 mg/kg/injection, schedule: Q04DX004 (sc), vehicle: saline with Tween-80

With `[N-]=[N+]=CC(=O)CCC(=O)C=[N+]=[N-]` the T/C (dose: 36.0 mg/kg/injection, schedule: Q04DX004 (sc), vehicle: DMSO) was 85 % of control and 99 % of control and the T/C (dose: 72.0 mg/kg/injection, schedule: Q04DX004 (sc), vehicle: DMSO) was 79 % of control.
`COc1cccc2c1C(=O)c1c(O)c3c(c(O)c1C2=O)CC(O)(/C(C)=N/NC(=O)CCC(=O)N/N=C(\C)C1(O)Cc2c(O)c4c(c(O)c2C(OC2CC(N)C(O)C(C)O2)C1)C(=O)c1c(OC)cccc1C4=O)CC3OC1CC(N)C(O)C(C)O1` (configuration not stated) was tested, and the T/C (dose: 6.25 mg/kg/injection, schedule: Q01DX010 (sc), vehicle: water) was 114 % of control, the T/C (dose: 12.5 mg/kg/injection, schedule: Q01DX010 (sc), vehicle: water) was 47 % of control and the T/C (dose: 15.63 mg/kg/injection, schedule: Q04DX004 (sc), vehicle: water) was 64 % of control. The T/C (dose: 25.0 mg/kg/injection, schedule: Q01DX010 (sc), vehicle: water) was 46 % of control, the T/C (dose: 31.25 mg/kg/injection, schedule: Q04DX004 (sc), vehicle: water) was 3 % of control and the T/C (dose: 62.5 mg/kg/injection, schedule: Q04DX004 (sc), vehicle: water) was 120 % of control.
`CNc1cccnc1/C=N/NC(N)=S` was tested, and the T/C [1] was 83 % of control, the T/C [2] was 110 % of control and the T/C [3] was 33 % of control. The T/C [4] was 58 % of control.
With `[Cl][Pt+2][Cl].[NH-]CC1(C[NH-])CCC1` the T/C (dose: 12.5 mg/kg/injection, schedule: Q04DX004 (sc), vehicle: suspension in saline) was 87 % of control and the T/C (dose: 25.0 mg/kg/injection, schedule: Q04DX004 (sc), vehicle: suspension in saline) was 61 % of control.
`CCCCCCCCCCCCCCCCCCOCC(COP(=O)([O-])OCC[N+](C)(C)C)OC` (configuration not stated) was tested, and the T/C (dose: 37.5 mg/kg/injection, schedule: Q04DX004 (sc), vehicle: saline) was 98 % of control, the T/C (dose: 75.0 mg/kg/injection, schedule: Q04DX004 (sc), vehicle: saline) was 77 % of control and the T/C (dose: 150.0 mg/kg/injection, schedule: Q04DX004 (sc), vehicle: saline) was 50 % of control.
`C[C@@]12C(=O)OC(=O)[C@]1(C)[C@H]1CC[C@@H]2O1` was tested, and the T/C (dose: 1.25 mg/kg/injection, schedule: Q04DX004 (sc), vehicle: Klucel (hydroxypropylcellulose) (HPC)) was 87 % of control, the T/C (dose: 2.5 mg/kg/injection, schedule: Q04DX004 (sc), vehicle: Klucel (hydroxypropylcellulose) (HPC)) was 75 % of control and the T/C (dose: 5.0 mg/kg/injection, schedule: Q04DX004 (sc), vehicle: Klucel (hydroxypropylcellulose) (HPC)) was 89 % of control.
For `C[n+]1c(/C=N/NC(N)=S)ccc2ccccc21`, the T/C [2] was 75 % of control, the T/C [4] was 66 % of control and the T/C [5] was 72 % of control.
With `O=C([CH-]C(=O)C(F)(F)F)c1ccccc1.O=C([CH-]C(=O)C(F)(F)F)c1ccccc1.O=C([CH-]C(=O)C(F)(F)F)c1ccccc1.O=C([CH-]C(=O)C(F)(F)F)c1ccccc1.[Eu+3].c1ccncc1` the T/C (dose: 800.0 mg/kg/injection, schedule: Q01DX010 (sc), vehicle: Klucel (hydroxypropylcellulose) (HPC)) was 10 % of control and 20 % of control (2×).
In the case of `C/C=C/c1cc2c(c(=O)o1)C(=O)[C@@H](O)[C@H](C)O2`, the T/C [6] is reported as 107 % of control and the T/C [7] is reported as 79 % of control.
In the case of `O=CC(S)CO` (configuration not stated), the T/C (dose: 100.0 mg/kg/injection, schedule: Q04DX004 (sc), vehicle: suspension in saline) is reported as 92 % of control, the T/C [8] is reported as 69 % of control and the T/C [9] is reported as 101 % of control. The T/C [10] was 72 % of control.
For `OCC1OC(n2cnc3cc(Cl)c(Cl)cc32)C(O)C1O` (configuration not stated), the T/C [3] was 111 % of control, the T/C [4] was 60 % of control and the T/C [5] was 122 % of control.
In the case of `O=C1C=C2C(=CCOC2O)O1` (configuration not stated), the T/C (dose: 2.0 mg/kg/injection, schedule: Q04DX004 (sc), vehicle: Klucel (hydroxypropylcellulose) (HPC)) is reported as 53 % of control and the T/C (dose: 4.0 mg/kg/injection, schedule: Q04DX004 (sc), vehicle: Klucel (hydroxypropylcellulose) (HPC)) is reported as 87 % of control.
For `COc1cc2cc3cc4cc(OC)c(OC)cc4c(C)[n+]3cc2cc1OC` (tested in a mixture with another compound), the T/C [8] was 118 % of control, the T/C [9] was 80 % of control and the T/C [10] was 98 % of control.
`C[n+]1c2cc(N)ccc2cc2ccc(N)cc21` was tested, and the T/C (dose: 1.56 mg/kg/injection, schedule: Q01DX010 (sc), vehicle: saline) was 72 % of control, the T/C (dose: 3.13 mg/kg/injection, schedule: Q01DX010 (sc), vehicle: saline) was 49 % of control and the T/C (dose: 6.25 mg/kg/injection, schedule: Q01DX010 (sc), vehicle: saline) was 88 % of control.
In the case of `O=c1[nH]c(=O)n(C2OC(CO)C(O)C2O)cc1F` (configuration not stated), the T/C (dose: 4.69 mg/kg/injection, schedule: Q04DX004 (sc), vehicle: saline) is reported as 34 % of control.
With `Nc1ncnc2c1ncn2C1C=C(CO)C(O)C1O` (configuration not stated) the T/C (dose: 3.75 mg/kg/injection, schedule: Q04DX004 (sc), vehicle: saline) was 76 % of control, the T/C (dose: 7.5 mg/kg/injection, schedule: Q04DX004 (sc), vehicle: saline) was 103 % of control and the T/C (dose: 15.0 mg/kg/injection, schedule: Q04DX004 (sc), vehicle: saline) was 81 % of control.
With `C[N+](C)(C)c1cc2c(nn1)Nc1ccccc1S2` the T/C (dose: 50.0 mg/kg/injection, schedule: Q01DX010 (sc), vehicle: Klucel (hydroxypropylcellulose) (HPC)) was 25 % of control and the T/C (dose: 100.0 mg/kg/injection, schedule: Q01DX010 (sc), vehicle: Klucel (hydroxypropylcellulose) (HPC)) was 85 % of control.
In the case of `N=c1nc2n(cc1F)[C@@H]1O[C@H](CO)[C@@H](O)[C@@H]1O2`, the T/C (dose: 300.0 mg/kg/injection, schedule: Q04DX004 (sc), vehicle: suspension in saline) is reported as 61 % of control and the T/C (dose: 1200.0 mg/kg/injection, schedule: Q04DX004 (sc), vehicle: suspension in saline) is reported as 60 % of control.
In the case of `O=C(O)C1(C(=O)O)CCC1.[NH2-].[NH2-].[Pt+2]`, the T/C (dose: 25.0 mg/kg/injection, schedule: Q01DX010 (sc), vehicle: dextrose) is reported as 66 % of control and 91 % of control and the T/C (dose: 50.0 mg/kg/injection, schedule: Q01DX010 (sc), vehicle: dextrose) is reported as 17 % of control.
With `N=C(N)CCCCCCCCC(=N)N` the T/C (dose: 18.75 mg/kg/injection, schedule: Q04DX004 (sc), vehicle: saline) was 101 % of control.
In the case of `Cc1c(N)nc(C(CC(N)=O)NCC(N)C(N)=O)nc1C(=O)NC(C(=O)NC(C)C(O)CC(=O)NC(C(=O)NC(OC1OC(C)C(N)C(O)C1O)C(O)c1nc(-c2nc(C(=O)NCCCC(N)CC(=O)NCCCNCCCCN)cs2)cs1)C(C)O)C(OC1OC(CO)C(O)C(O)C1OC1OC(CO)C(O)C(OC(N)=O)C1O)c1cnc[nH]1` (configuration not stated), the T/C (dose: 8.0 mg/kg/injection, schedule: Q04DX004 (sc), vehicle: saline) is reported as 17 % of control and the T/C (dose: 16.0 mg/kg/injection, schedule: Q04DX004 (sc), vehicle: saline) is reported as 21 % of control.
With `CN(C)c1nc(N(C)C)nc(N(C)C)n1` the T/C (dose: 15.0 mg/kg/injection, schedule: Q01DX010 (sc), vehicle: saline with Tween-80) was 90 % of control and the T/C (dose: 30.0 mg/kg/injection, schedule: Q01DX010 (sc), vehicle: saline with Tween-80) was 81 % of control and 101 % of control and 222 % of control.
`O=C(NO)c1ccc(O)c(O)c1` was tested, and the T/C (dose: 200.0 mg/kg/injection, schedule: Q04DX004 (sc), vehicle: water) was 52 % of control and the T/C (dose: 400.0 mg/kg/injection, schedule: Q04DX004 (sc), vehicle: water) was 86 % of control.
In the case of `CC1=C(/C=C/C(C)=C/C=C/C(C)=C/CO)C(C)(C)CCC1`, the T/C [11] is reported as 82 % of control, the T/C [7] is reported as 94 % of control and the T/C (dose: 400.0 mg/kg/injection, schedule: Q04DX004 (sc), vehicle: saline with Tween-80) is reported as 96 % of control. The T/C (dose: 800.0 mg/kg/injection, schedule: Q04DX004 (sc), vehicle: saline with Tween-80) was 121 % of control.
In the case of `CC(=O)ON(C(C)=O)c1ccc(C(N)=O)cc1`, the T/C [1] is reported as 83 % of control, the T/C [2] is reported as 77 % of control and the T/C [3] is reported as 60 % of control. For the same compound, the T/C [4] was 71 % of control and 78 % of control, the T/C [5] was 103 % of control and the T/C (dose: 2400.0 mg/kg/injection, schedule: Q04DX004 (sc), vehicle: saline with Tween-80) was 61 % of control.
In the case of `OCC1OC(n2cnc3c2NC=NC[C@H]3O)CC1O` (some centres not stated), the T/C (dose: 1.0 mg/kg/injection, schedule: Q01DX010 (sc), vehicle: water) is reported as 168 % of control and the T/C (dose: 2.0 mg/kg/injection, schedule: Q01DX010 (sc), vehicle: water) is reported as 176 % of control.
In the case of `O=S(=O)(CCl)OCCCl`, the T/C [6] is reported as 163 % of control and the T/C [11] is reported as 105 % of control.
